According to patent US20120040464A1, “METHOD FOR GENERATING HOMOPLASMIC CELLS FROM HETEROPLASMIC CELLS” (NATIONAL CENTER OF NEUROLOGY AND PSYCHIATRY, priority 2009, published 2012):

System: MELAS cells (primary culture cells from the skeletal muscle and skin of MELAS patients)
Settings: 100 μM, 30 minutes
Experimental: MELAS cells were plated to result in a cell density of 1×10^5 to 1×10^6 cells/mL in the presence of DMEM containing 10% FCS, and they were then cultured at 37° C. in a 5% CO2 atmosphere for 3 days. After completion of the culture for 3 days, when the cell density reached 5×10^5 to 6×10^6 cells/mL, the cells were diluted by a factor of 10^4 to 1.2×10^5. The resultant cells were plated and were further cultured for 15 days. After completion of the culture for 15 days, several single colonies of cells were selected, and DNA was then extracted by a common method. Using the extracted DNA sample as a template, PCR was carried out with a primer pair for amplifying a site around the nucleotide at position 3243 of the mtDNA. Thereafter, the PCR product was treated with ApaI. In the case of normal mtDNA, the sequence around the nucleotide at position 3243 is GAGCCC (wherein the underlined portion corresponds to the nucleotide at position 3243). […] Accordingly, it becomes possible to evaluate the heteroplasmic state of the cells by calculating the ratio of the 182-bp and 112-bp bands to the 294-bp bands (see Goto et al., Nature, 348, 651-653, 1990 for the details of this method).
Thereafter, the cells were washed with PBS three times, and were then cultured for 3 days. After completion of the culture for 3 days, when the cell density reached 5×10^5 to 6×10^6 cells/mL, the cells were diluted by a factor of 10^4 to 1.2×10^5. The resultant cells were plated and were further cultured for 15 days. After completion of the culture for 15 days, several single colonies of cells were selected, and DNA was then extracted by a common method. The intracellular percentage of the A3243G substitution mutation of mtDNA was examined with respect to the obtained DNA samples by the same method as described above.

`OO` [hydrogen peroxide] was tested, and the “percentage of A3243G substitution mutation in cell clones obtained after a hydrogen peroxide treatment” value (then 3 days and 15 days culture, single-colony clones with decreased percentage, e.g. clone 16, clone 25) was roughly 0%, the “percentage of A3243G substitution mutation in clones where it became higher than without hydrogen peroxide treatment” value (e.g. clones 15, 27, 29, 32, 34, 35, 36, 39, untreated 30%) was greater than 30% and the “effect of treatment on homoplasmic state of the cells” value (MELAS cells) was “promotes the conversion of the cells to a homoplasmic state”.
